Test results taken from PubChem BioAssay (NCI).
“And” between values parts separate entries of the source, which are not always exact repeats. Equal entries are not always repeated.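 Cells were grown in 96-well plates and exposed to each compound for 48 hours at five concentrations; endpoints were interpolated linearly between bracketing concentrations, or set to the highest concentration if not reached. At the GI50, growth is halved. TGI marks complete inhibition of growth.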

Tests used:
Test in all cases: NCI tumour cell line growth inhibition, 48 h
[1] = tested on: DLD-1 colon
[2] = tested on: DMS 114 small cell lung
[3] = tested on: KM20L2 colon
[4] = tested on: M19-MEL melanoma
[5] = tested on: P388 leukemia
[6] = tested on: SN12K1 renal
[7] = tested on: XF 498 CNS
[8] = tested on: 786-0 renal
[9] = tested on: LXFL 529 NSCLC

Structure (SMILES)	TGI [1]	TGI [2]	TGI [3]	TGI [4]	TGI [5]	TGI [6]	TGI [7]	TGI [8]	TGI [9]	GI50 [7]
C=C1C(=O)OC2CC(C)C3C4OC4C(O)C3(C)C(O)C12 (stereo unspecified)	87.8 µM	45.9 µM	42.8 µM	69.7 µM	43.7 µM	70.8 µM	47.4 µM	–	–	–
Clc1ccc(C[P+](c2ccccc2)(c2ccccc2)c2ccccc2)cc1Cl	21.5 µM	5.95 µM	13.7 µM	5.32 µM	–	–	3.24 µM	17 µM	–	–
C/C(N=NS(=O)(=O)c1ccc([N+](=O)[O-])cc1)=C1\C=CC=CN1O	> 100 µM	> 100 µM	> 100 µM	> 100 µM	–	–	> 100 µM	> 100 µM	> 100 µM	–
C/C(=N\O)c1cccc[n+]1Cc1ccccc1	–	–	–	–	–	–	–	> 100 µM	–	–
CC12CCC(CC1)C(C)(C)O2	103 µM	123 µM	116 µM	64.5 µM	55.7 µM	110 µM	5.51 µM	–	–	–
O=C(O)/C=C/c1c[nH]c(=O)[nH]c1=O	> 500 µM	> 500 µM	> 500 µM	> 500 µM	> 500 µM	> 500 µM	> 500 µM	–	–	> 500 µM and 151 µM
